Experimental data reported in patent US12070458B2, “Therapeutic agent composition and method of use, for treatment of mild congnitive impairment, depression, and psychological disorders” (priority 2018, dated 2024).
“Also recorded” adds a separate entry of the source.

System: Alzheimer patients with mild cognitive impairment
Experiment: Clinical trial on Alzheimer's patients with mild cognitive impairment
Format: in vivo, human
Conditions: 10 mg orally once a day
Protocol: A randomized clinical trial of NA-831 (also known as cyclic Prolyl Glycine) was performed on Alzheimer patients with mild cognitive impairment of vascular origin. The drug NA-831 was administered orally with a one capsule of 10 mg once a day over a period of 12 weeks. There were 32 Alzheimer patients participated in the study.
• Is male or female, at 55-85 years of age (inclusive) at screening. • Self-reported memory complaint, corroborated by spouse or companion as appropriate. • Wechsler Memory Scale III (WMS-III) age-adjusted Logical Memory II score ≤5. • Mini-Mental State Exam (MMSE)≥24. • Center for Epidemiologic Studies-Depression (CES-D) score <27. • Normal thyroid function, defined as TSH, T3 and T4 within normal limits. • Agree not to consume alcoholic beverages within 8 hours of each study visit. • Willing and able to sign informed consent and complete the CTB and all other tests and procedures as listed in the protocol. • Female subjects must be surgically sterile or post-menopausal for at least 2 years. If <2 years post-menopausal, then a follicle stimulating hormone (FSH) ≥40 mIU/mL must be obtained. […] Assessment • 1) A scale assessing the severity of symptoms based on the Unified Assessment of Clinical-Pharmacological Actions of Psychotropic Agents in Patients with Organic Disorders, which provides objective quantitative data on the therapeutic dynamics of psychopathological symptomatology and the characteristics of the psychotropic actions of agents. • 2) The Mini Mental State Examination (MMSE), which consists of a battery of neuropsychological tests evaluating cognitive functions in points: attention, memory, gnosis, speech, praxis, and counting. • 3) The Brief Cognitive Rating Scale (BCRS), which provides assessment of the severities of the individual components of cognitive impairments. • 4) The Cognitive Capacity Screening Examination (CCSE), which consists of a battery of tests assessing cognitive functions: orientation, memory, counting, and the abilities to infer and to group objects. • 5) The Clinical Global Impression scale, which provides quantitative assessments of the therapeutic efficacies of agents, along with tolerance and safety, using investigations of measures of disease severity, the level of “overall improvement,” the therapeutic effect, and the presence and severity of side effects during treatment. • 6) Laboratory analyses consisting of general blood and urine tests, including biochemical investigations (AST, ALT). • 7) ECG traces. Results
The mental state of patients with mild cognitive impairment, such as but not limited to through vascular origin was defined by the assessment including the Mini Mental State Examination (MMSE), the Brief Cognitive Rating Scale (BCRS), the Cognitive Capacity Screening Examination (CCSE).
W is Wilcoxon signed-rank test, which is the nonparametric test equivalent to the dependent t-test. It is used to compare two sets of scores that come from the same participants. This can occur when we wish to investigate any change in scores from one time point to another, or when individuals are subjected to more than one condition.
Clinicians use used a Wilcoxon signed-rank test to understand whether there was a difference in the patient conditions in term of fatigue before and after a period the time with the drug treatment.
Analysis of the therapeutic efficacies of NA-831 were performed in all patients in the trial using the assessment methods including: the Mini Mental State Examination (MMSE), the Brief Cognitive Rating Scale (BCRS), and the Cognitive Capacity Screening Examination (CCSE).

## O=C1NCC(=O)N2CCC[C@@H]12 [cPG, cyclic Prolyl Glycine]
12 weeks
  long-term memory: improves
  orientation: improves
  patients with little improvement: 7.5%
  patients with marked improvement: 92.5%
  short-term memory: improves
Day 42 to day 84, p value of less than 0.01
  ability to concentrate and count (Brief Cognitive Rating Scale): improve
Listed as NA-831
  functions significantly improved with p<0.01: Reduce fatigue; also recorded: Reduce anxiety; also recorded: Reduce irritability; also recorded: Improve lability; also recorded: Reduce disturbance from waking up at night; also recorded: Reduce daytime drowsiness; also recorded: Improve duration of nocturnal sleep
Baseline vs day 7
  Affective Lability, W (Wilcoxon signed-rank test): 23
  Anxiety, W (Wilcoxon signed-rank test): 22
  Apathy indifference, W (Wilcoxon signed-rank test): 19
  Daytime drowsiness, W (Wilcoxon signed-rank test): 19
  Decreased mood, W (Wilcoxon signed-rank test): 3
  Disturbance to waking, W (Wilcoxon signed-rank test): 21
  Headache, W (Wilcoxon signed-rank test): 28
  Hyperesthesia, W (Wilcoxon signed-rank test): 11
  Impairments to the depth and duration of nocturnal sleep, W (Wilcoxon signed-rank test): 37
  Increased fatigue, W (Wilcoxon signed-rank test): 17
  Increased irritability, W (Wilcoxon signed-rank test): 38
  Orthostatic Impairment, W (Wilcoxon signed-rank test): 18
  Sleeping Disturbance, W (Wilcoxon signed-rank test): 37
  Sweating, W (Wilcoxon signed-rank test): 12
  Tachycardia, W (Wilcoxon signed-rank test): 29
Baseline vs day 14
  Affective Lability, W (Wilcoxon signed-rank test): 58
  Anxiety, W (Wilcoxon signed-rank test): 22
  Apathy indifference, W (Wilcoxon signed-rank test): 41
  Daytime drowsiness, W (Wilcoxon signed-rank test): 45
  Decreased mood, W (Wilcoxon signed-rank test): 12
  Disturbance to waking, W (Wilcoxon signed-rank test): 29
  Headache, W (Wilcoxon signed-rank test): 49
  Hyperesthesia, W (Wilcoxon signed-rank test): 21
  Impairments to the depth and duration of nocturnal sleep, W (Wilcoxon signed-rank test): 57
  Increased fatigue, W (Wilcoxon signed-rank test): 95
  Increased irritability, W (Wilcoxon signed-rank test): 47
  Orthostatic Impairment, W (Wilcoxon signed-rank test): 37
  Sleeping Disturbance, W (Wilcoxon signed-rank test): 47
  Sweating, W (Wilcoxon signed-rank test): 23
  Tachycardia, W (Wilcoxon signed-rank test): 28
Baseline vs day 21
  Affective Lability, W (Wilcoxon signed-rank test): 69
  Anxiety, W (Wilcoxon signed-rank test): 46
  Apathy indifference, W (Wilcoxon signed-rank test): 57
  Daytime drowsiness, W (Wilcoxon signed-rank test): 52
  Decreased mood, W (Wilcoxon signed-rank test): 22
  Disturbance to waking, W (Wilcoxon signed-rank test): 41
  Headache, W (Wilcoxon signed-rank test): 98
  Hyperesthesia, W (Wilcoxon signed-rank test): 33
  Impairments to the depth and duration of nocturnal sleep, W (Wilcoxon signed-rank test): 91
  Increased fatigue, W (Wilcoxon signed-rank test): 97
  Increased irritability, W (Wilcoxon signed-rank test): 68
  Orthostatic Impairment, W (Wilcoxon signed-rank test): 58
  Sleeping Disturbance, W (Wilcoxon signed-rank test): 70
  Sweating, W (Wilcoxon signed-rank test): 37
  Tachycardia, W (Wilcoxon signed-rank test): 35
Baseline vs day 28
  Affective Lability, W (Wilcoxon signed-rank test): 118
  Anxiety, W (Wilcoxon signed-rank test): 70
  Apathy indifference, W (Wilcoxon signed-rank test): 59
  Daytime drowsiness, W (Wilcoxon signed-rank test): 67
  Decreased mood, W (Wilcoxon signed-rank test): 23
  Disturbance to waking, W (Wilcoxon signed-rank test): 47
  Headache, W (Wilcoxon signed-rank test): 101
  Hyperesthesia, W (Wilcoxon signed-rank test): 67
  Impairments to the depth and duration of nocturnal sleep, W (Wilcoxon signed-rank test): 93
  Increased fatigue, W (Wilcoxon signed-rank test): 137
  Increased irritability, W (Wilcoxon signed-rank test): 93
  Orthostatic Impairment, W (Wilcoxon signed-rank test): 78
  Sleeping Disturbance, W (Wilcoxon signed-rank test): 70
  Sweating, W (Wilcoxon signed-rank test): 66
  Tachycardia, W (Wilcoxon signed-rank test): 45
Baseline vs day 42
  Affective Lability, W (Wilcoxon signed-rank test): 139
  Anxiety, W (Wilcoxon signed-rank test): 107
  Apathy indifference, W (Wilcoxon signed-rank test): 61
  Daytime drowsiness, W (Wilcoxon signed-rank test): 76
  Decreased mood, W (Wilcoxon signed-rank test): 23
  Disturbance to waking, W (Wilcoxon signed-rank test): 69
  Headache, W (Wilcoxon signed-rank test): 120
  Hyperesthesia, W (Wilcoxon signed-rank test): 69
  Impairments to the depth and duration of nocturnal sleep, W (Wilcoxon signed-rank test): 104
  Increased fatigue, W (Wilcoxon signed-rank test): 155
  Increased irritability, W (Wilcoxon signed-rank test): 109
  Orthostatic Impairment, W (Wilcoxon signed-rank test): 67
  Sleeping Disturbance, W (Wilcoxon signed-rank test): 82
  Sweating, W (Wilcoxon signed-rank test): 67
  Tachycardia, W (Wilcoxon signed-rank test): 53
Baseline vs day 56
  Affective Lability, W (Wilcoxon signed-rank test): 140
  Anxiety, W (Wilcoxon signed-rank test): 110
  Apathy indifference, W (Wilcoxon signed-rank test): 65
  Daytime drowsiness, W (Wilcoxon signed-rank test): 109
  Decreased mood, W (Wilcoxon signed-rank test): 23
  Disturbance to waking, W (Wilcoxon signed-rank test): 92
  Headache, W (Wilcoxon signed-rank test): 121
  Hyperesthesia, W (Wilcoxon signed-rank test): 78
  Impairments to the depth and duration of nocturnal sleep, W (Wilcoxon signed-rank test): 113
  Increased fatigue, W (Wilcoxon signed-rank test): 159
  Increased irritability, W (Wilcoxon signed-rank test): 110
  Orthostatic Impairment, W (Wilcoxon signed-rank test): 78
  Sleeping Disturbance, W (Wilcoxon signed-rank test): 82
  Sweating, W (Wilcoxon signed-rank test): 67
  Tachycardia, W (Wilcoxon signed-rank test): 67
Baseline vs day 70
  Affective Lability, W (Wilcoxon signed-rank test): 142
  Anxiety, W (Wilcoxon signed-rank test): 115
  Apathy indifference, W (Wilcoxon signed-rank test): 67
  Daytime drowsiness, W (Wilcoxon signed-rank test): 117
  Decreased mood, W (Wilcoxon signed-rank test): 24
  Disturbance to waking, W (Wilcoxon signed-rank test): 95
  Headache, W (Wilcoxon signed-rank test): 129
  Hyperesthesia, W (Wilcoxon signed-rank test): 83
  Impairments to the depth and duration of nocturnal sleep, W (Wilcoxon signed-rank test): 118
  Increased fatigue, W (Wilcoxon signed-rank test): 162
  Increased irritability, W (Wilcoxon signed-rank test): 117
  Orthostatic Impairment, W (Wilcoxon signed-rank test): 81
  Sleeping Disturbance, W (Wilcoxon signed-rank test): 82
  Sweating, W (Wilcoxon signed-rank test): 69
  Tachycardia, W (Wilcoxon signed-rank test): 69
Day 84, average 23.5 on day 1
  MMSE, average: 29.75
